From US20260053834A1, “COVALENT MODIFIERS OF AKT1 AND USES THEREOF” (Terremoto Biosciences, Inc., priority 2023, published 2026) come the findings set out here.

One experiment addresses T1, AKT1 E17K (Homo sapiens, UniProt P31749, E17K).
T1 construct: expressed in transfected cells; host or cells: HEK293
Description: Live cell target engagement by NanoBRET competitive probe displacement, AKT1 E17K. The note with it: transfected HEK293 cells, 2 h at 37° C., read-out: AKT1 E17K IC50: GeoMean IC50. The experiment is classed as binding. As to the method: (§1) Determining live cell AKT1 E17K, AKT1 WT, and AKT2 target engagement by NanoBRET competitive probe displacement. Live cell target engagement assays were performed as described (Vasta, J. D. et al. Cell Chem Biol 2018, 25(11), 206-214). Briefly, HEK293 cells were transfected with plasmids encoding kinase-NanoLuciferase fusion proteins overnight. Cells were then treated with serial dilutions of compound and an ˜EC50 concentration of fluorescently-tagged ATP-competitive tracer (Promega). After incubation for 2 h at 37° C., luciferase substrate and extracellular luciferase inhibitor were added to all wells, and luminescent intensity at 460 nm and 600 nm were measured on a multimode plate-reader. The ratio of E600/E460 was calculated to give the tracer engagement signal (BRET). IC50 values were calculated by fitting BRET values to a log(inhibitor) vs. response Hill equation.

The next experiment deals with T2, AKT2 (Homo sapiens, UniProt P31751).
T2 construct: expressed in transfected cells; host or cells: HEK293
T2 sequence (P31751 whole entry): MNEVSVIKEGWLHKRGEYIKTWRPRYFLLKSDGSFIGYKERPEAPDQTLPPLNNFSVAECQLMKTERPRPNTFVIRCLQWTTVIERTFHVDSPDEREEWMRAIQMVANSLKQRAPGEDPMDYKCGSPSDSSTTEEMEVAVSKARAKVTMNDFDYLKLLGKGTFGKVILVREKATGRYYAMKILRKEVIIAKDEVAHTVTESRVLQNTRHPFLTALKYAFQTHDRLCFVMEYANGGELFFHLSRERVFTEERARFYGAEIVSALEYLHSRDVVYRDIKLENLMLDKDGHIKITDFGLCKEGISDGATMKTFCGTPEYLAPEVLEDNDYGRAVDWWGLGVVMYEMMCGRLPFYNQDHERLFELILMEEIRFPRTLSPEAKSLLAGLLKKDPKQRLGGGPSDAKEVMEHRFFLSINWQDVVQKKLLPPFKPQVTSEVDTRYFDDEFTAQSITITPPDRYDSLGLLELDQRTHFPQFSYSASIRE
Description: Live cell target engagement by NanoBRET competitive probe displacement, AKT2. It counts as binding. To be noted: transfected HEK293 cells, 2 h at 37° C., read-out: AKT2 IC50: GeoMean IC50. As to the method:
as §1

In a further experiment the target is T3, AKT1 WT (Homo sapiens, UniProt P31749).
T3 construct: expressed in transfected cells; host or cells: HEK293
T3 sequence (P31749 whole entry): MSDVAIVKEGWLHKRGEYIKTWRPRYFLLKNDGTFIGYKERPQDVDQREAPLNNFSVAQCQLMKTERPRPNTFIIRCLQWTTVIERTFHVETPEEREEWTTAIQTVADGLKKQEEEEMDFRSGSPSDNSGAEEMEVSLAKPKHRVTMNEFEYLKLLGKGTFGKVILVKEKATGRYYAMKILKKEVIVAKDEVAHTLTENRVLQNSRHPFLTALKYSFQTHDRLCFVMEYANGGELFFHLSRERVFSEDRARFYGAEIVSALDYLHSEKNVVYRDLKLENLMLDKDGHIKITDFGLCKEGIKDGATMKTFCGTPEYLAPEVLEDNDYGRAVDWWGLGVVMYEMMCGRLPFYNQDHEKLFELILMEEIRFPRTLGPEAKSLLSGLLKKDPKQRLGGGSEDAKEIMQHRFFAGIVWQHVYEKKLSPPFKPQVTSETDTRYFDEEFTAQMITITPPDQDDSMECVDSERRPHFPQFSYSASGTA
The experiment can be described thus: Live cell target engagement by NanoBRET competitive probe displacement, AKT1 WT. It counts as binding. The note with it: transfected HEK293 cells, 2 h at 37° C., read-out: AKT1 WT IC50: GeoMean IC50. The procedure: as §1

For experiment [1], the system named is LAPC4 prostate cancer cells, which express the AKT1 E17K allele. The experiment can be described thus: Antiproliferative effects in LAPC4 cells (CellTiter Glo, 72 h). The experiment is classed as cell-based. The note with it: Homo sapiens, LAPC4, 72 h, read-out: LAPC4 proliferation IC50: GeoMean IC50. The procedure:
Antiproliferative effects in LAPC4 cells. LAPC4 prostate cancer cells (Klein, K. A. et al. Nat Med 1997, 3, 402-408), which express the AKT1 E17K allele, were grown in IMDM media (Hyclone) supplemented with 12% FBS+1% P/S. To assess compound effects on growth, 1,000 cells/well were seeded in 384 well assay plates, incubated with compound dilutions dissolved in DMSO. After 72 h, intracellular ATP content was assessed with CellTiter Glo reagent (Promega) according to the manufacturer's instructions. IC50 values were calculated by fitting luminescence values to a log(inhibitor) vs. response Hill equation.

T1 sequence (P31749 whole entry E17K): as the sequence (P31749 whole entry) above, with E17K counted along it

As for `Cn1ccc(-c2ccc3nc(-c4cccnc4N)n(-c4ccc5c(c4)CC[C@@H]5NC(=O)c4ccc(O)c(C=O)c4)c3n2)n1` [Example 59, (S)—N-(5-(2-(2-aminopyridin-3-yl)-5-(1-methyl-1H-pyrazol-3-yl)-3Himidazo[4,5-b]pyridin-3-yl)-2,3-dihydro-1H-inden-1-yl)-3-formyl-4-hydroxybenzamide], the IC50 at AKT1 E17K was 0.01 to 0.1 µM; at AKT2, 0.1 to 2 µM; at AKT1 WT it was 0.01 to 0.1 µM; in experiment [1], 0.01 to 0.1 µM.
With `Nc1ncccc1-c1nc2cc(O)c(-n3cccn3)nc2n1-c1ccc2c(c1)CC[C@@H]2NC(=O)c1cc(C=O)c(O)cc1F` [Example 226, N-[(1S)-5-[2-(2-aminopyridin-3-yl)-6-hydroxy-5-(pyrazol-1-yl)imidazo[4,5-b]pyridin-3-yl]-2,3-dihydro-1H-inden-1-yl]-2-fluoro-5-formyl-4-hydroxybenzamide], the IC50 at AKT1 E17K lay within 0.01 to 0.1 µM; at AKT2, 0.1 to 2 µM; at AKT1 WT, 0.01 to 0.1 µM; in experiment [1], 0.01 to 0.1 µM.
Take `Cn1ncc(-c2ccc3nc(-c4cccnc4N)n(-c4ccc5c(c4)CC[C@@H]5NC(=O)c4ccc(O)c(C=O)c4)c3n2)n1` [Example 120, N-[(1S)-5-[2-(2-aminopyridin-3-yl)-5-(2-methyl-1,2,3-triazol-4-yl)imidazo[4,5-b]pyridin-3-yl]-2,3-dihydro-1H-inden-1-yl]-3-formyl-4-hydroxybenzamide]: the IC50 at AKT1 E17K is less than 0.01 µM; on AKT2 it was 0.1 to 2 µM; on AKT1 WT, 0.01 to 0.1 µM; in experiment [1] it was 0.01 to 0.1 µM.
As to `Nc1ncccc1-c1nc2ccc(-n3cccn3)nc2n1-c1ccc2c(c1)CC(F)(F)[C@@H]2NC(=O)c1ccc(O)c(C=O)c1` [Example 195, (R)—N-(5-(2-(2-aminopyridin-3-yl)-5-(1H-pyrazol-1-yl)-3H-imidazo[4,5-b]pyridin-3-yl)-2,2-difluoro-2,3-dihydro-1H-inden-1-yl)-3-formyl-4-hydroxybenzamide], the IC50 on AKT1 E17K fell in the range of 0.01 to 0.1 µM; on AKT2 it was 0.1 to 2 µM; at AKT1 WT, 0.1 to 2 µM; in experiment [1], 0.01 to 0.1 µM.
Regarding `CCc1ccc2nc(-c3cccnc3N)n(-c3ccc4c(c3)CC[C@@H]4NC(=O)c3ccc(O)c(C=O)c3)c2n1` [Example 43, (S)—N-(5-(2-(2-aminopyridin-3-yl)-5-ethyl-3H-imidazo[4,5-b]pyridin-3-yl)-2,3-dihydro-1H-inden-1-yl)-3-formyl-4-hydroxybenzamide], the IC50 on AKT1 E17K is 0.01 to 0.1 µM; on AKT2, no less than 2 µM; at AKT1 WT, 0.1 to 2 µM; in experiment [1], 0.1 to 2 µM.
`CN1CC(n2ccc(-c3ccc4nc(-c5cccnc5N)n(-c5ccc6c(c5)CC[C@@H]6NC(=O)c5ccc(O)c(C=O)c5)c4n3)n2)C1` [Example 165, (S)—N-(5-(2-(2-aminopyridin-3-yl)-5-(1-(1-methylazetidin-3-yl)-1H-pyrazol-3-yl)-3H-imidazo[4,5-b]pyridin-3-yl)-2,3-dihydro-1H-inden-1-yl)-3-formyl-4-hydroxybenzamide]: the IC50 at AKT1 E17K is 0.01 to 0.1 µM; on AKT2, 0.1 to 2 µM; on AKT1 WT, 0.01 to 0.1 µM; in experiment [1], 0.1 to 2 µM.
As to `Nc1ncccc1-c1nc2ccc(-n3cc(Cl)cn3)nc2n1-c1ccc2c(c1)CC[C@@H]2NC(=O)c1ccc(O)c(C=O)c1` [Example 78, N-[(1S)-5-[2-(2-aminopyridin-3-yl)-5-(4-chloropyrazol-1-yl)imidazo[4,5-b]pyridin-3-yl]-2,3-dihydro-1H-inden-1-yl]-3-formyl-4-hydroxybenzamide], the IC50 on AKT1 E17K was 0.01 to 0.1 µM; at AKT2, 0.1 to 2 µM; at AKT1 WT it was 0.1 to 2 µM; in experiment [1], 0.1 to 2 µM.
For `CN1CCN(c2cccc(-c3ccc4nc(-c5cccnc5N)n(-c5ccc6c(c5)CC[C@@H]6NC(=O)c5ccc(O)c(C=O)c5)c4n3)c2)CC1` [Example 19, (S)—N-(5-(2-(2-aminopyridin-3-yl)-5-(3-(4-methylpiperazin-1-yl)phenyl)-3H-imidazo[4,5-b]pyridin-3-yl)-2,3-dihydro-1H-inden-1-yl)-3-formyl-4-hydroxybenzamide], the IC50 on AKT1 E17K is less than 0.01 µM; at AKT2, less than 0.01 µM; on AKT1 WT, less than 0.01 µM; in experiment [1], 0.01 to 0.1 µM.
With `Nc1ncccc1-c1nc2ccc(-n3ccc(F)n3)nc2n1-c1ccc2c(c1)CC[C@@H]2NC(=O)c1ccc(O)c(C=O)c1` [Example 75, (S)—N-(5-(2-(2-aminopyridin-3-yl)-5-(3-fluoro-1H-pyrazol-1-yl)-3H-imidazo[4,5-b]pyridin-3-yl)-2,3-dihydro-1H-inden-1-yl)-3-formyl-4-hydroxybenzamide], the IC50 on AKT1 E17K was 0.01 to 0.1 µM; at AKT2, 0.1 to 2 µM; on AKT1 WT, 0.01 to 0.1 µM; in experiment [1] it was 0.1 to 2 µM.
As to `Nc1ncccc1-c1nc2c(Cl)cc(-n3cccn3)nc2n1-c1ccc2c(c1)CC[C@@H]2NC(=O)c1ccc(O)c(C=O)c1` [Example 196, (S)—N-(5-(2-(2-aminopyridin-3-yl)-7-chloro-5-(1H-pyrazol-1-yl)-3H-imidazo[4,5-b]pyridin-3-yl)-2,3-dihydro-1H-inden-1-yl)-3-formyl-4-hydroxybenzamide], the IC50 on AKT1 E17K is 0.01 to 0.1 µM; at AKT2, 0.1 to 2 µM; at AKT1 WT, 0.01 to 0.1 µM; in experiment [1], 0.1 to 2 µM.
In the case of `Cc1cc(-n2cccn2)nc2c1nc(-c1cccnc1N)n2-c1ccc2c(c1)CC[C@@H]2NC(=O)c1cc(C=O)c(O)c(F)c1F` [Example 153, (S)—N-(5-(2-(2-aminopyridin-3-yl)-7-methyl-5-(1H-pyrazol-1-yl)-3H-imidazo[4,5-b]pyridin-3-yl)-2,3-dihydro-1H-inden-1-yl)-2,3-difluoro-5-formyl-4-hydroxybenzamide], the IC50 (on AKT1 E17K; at AKT2; at AKT1 WT; in experiment [1]) was 0.01 to 0.1 µM in each case.
With `Nc1ncccc1-c1nc2ccc(-c3ccn(C(F)F)n3)nc2n1-c1ccc2c(c1)CC[C@@H]2NC(=O)c1ccc(O)c(C=O)c1` [Example 113, N-[(1S)-5-[2-(2-aminopyridin-3-yl)-5-[1-(difluoromethyl)pyrazol3-yl]imidazo [4,5-b]pyridin-3-yl]-2,3-dihydro-1H-inden-1-yl]-3-formyl-4-hydroxybenzamide], the IC50 was less than 0.01 µM on AKT1 E17K, 0.1 to 2 µM at AKT2, 0.01 to 0.1 µM at AKT1 WT and 0.01 to 0.1 µM in experiment [1].
`Cc1cc2nc(-c3cccnc3N)n(-c3ccc4c(c3)CC[C@@H]4NC(=O)c3ccc(O)c(C=O)c3)c2nc1-n1cccn1` [Example 229, (S)—N-(5-(2-(2-aminopyridin-3-yl)-6-methyl-5-(1H-pyrazol-1-yl)-3H-imidazo[4,5-b]pyridin-3-yl)-2,3-dihydro-1H-inden-1-yl)-3-formyl-4-hydroxybenzamide]: the IC50 on AKT1 E17K lay in the range of 0.01 to 0.1 µM; at AKT2 it was 0.1 to 2 µM; on AKT1 WT, 0.1 to 2 µM; in experiment [1] it was 0.1 to 2 µM.
With `Nc1ncccc1-c1nc2ccc(-n3cccn3)nc2n1-c1ccc2c(c1)[C@@H](O)C[C@@H]2NC(=O)c1ccc(O)c(C=O)c1` (single isomer, unassigned) [Example 99], the IC50 (at AKT1 E17K; at AKT2; on AKT1 WT; in experiment [1]) was 0.1 to 2 µM each time.
Regarding `Cn1ccc(-c2ccc3nc(-c4cccnc4N)n(-c4ccc5c(c4)CC[C@@H]5NC(=O)c4cc(C=O)c(O)cc4F)c3n2)n1` [Example 241, N-[(1S)-5-[2-(2-aminopyridin-3-yl)-5-(1-methylpyrazol-3-yl)imidazo[4,5-b]pyridin-3-yl]-2,3-dihydro-1H-inden-1-yl]-2-fluoro-5-formyl-4-hydroxybenzamide], the IC50 on AKT1 E17K is less than 0.01 µM; at AKT2 it was 0.1 to 2 µM; on AKT1 WT, 0.01 to 0.1 µM; in experiment [1], 0.01 to 0.1 µM.
Take `Nc1ncccc1-c1nc2ccc(-c3ccccc3)nc2n1-c1ccc2c(c1)CC[C@@H]2NC(=O)c1cc(C=O)c(O)c(F)c1F` [Example 22, N-[(1S)-5-[2-(2-aminopyridin-3-yl)-5-phenylimidazo[4,5-b]pyridin-3-yl]-2,3-dihydro-1H-inden-1-yl]-2,3-difluoro-5-formyl-4-hydroxybenzamide]: the IC50 (at AKT1 E17K; at AKT2; on AKT1 WT; in experiment [1]) was 0.01 to 0.1 µM each time.
